Publication PMC8405639, “2-Carba-lysophosphatidic acid is a novel β-lysophosphatidic acid analogue with high potential for lysophosphatidic acid receptor activation and autotaxin inhibition” (Scientific Reports, 2021)

Assays:
hLPA5 = molecular target: T1, hLPA5 (Homo sapiens, UniProt Q9H1C0); assay: TGFα-shedding assay, LPA5; assay type: cell-based; details: 293A cells, AP-TGFα release; for EC50: 1 h, with Ki16425 10 μM; for Emax: read-out: Emax ± SEM hLPA5 (converted)
T1 construct: expressed in transfected cells; host or cells: 293A cells
Method: (§1) 293A cells expressing LPA receptors were stimulated with the indicated concentration of LPA, 2carbaLPA, and cPA analogues. Receptor-specific alkaline phosphatase-tagged transforming growth factor-α release was calculated by subtracting the responses in the empty vector-transfected cells from those in the receptor-expressing cells. Data are represented as standard error of the mean of three independent replicates.
(§2) 293A cells (Life Technologies, Tokyo, Japan) were cultured in DMEM (Nissui Pharmaceutical, Tokyo, Japan) supplemented with 10% foetal calf serum (Gibco, Waltham, MA, USA) in an incubator at 37 °C and 5% CO2. This assay was conducted according to a modified version of a method described previously. […] The cells were co-transfected with vectors-expressing human LPA1–6, alkaline phosphatase-tagged TGFα (AP-TGFα). As negative controls, cells transfected with an empty vector instead of the receptor-expressing vector were used. After 24 h, the cells were resuspended in Hank’s balanced salt solution (HBSS), seeded in 96-well plates, and stimulated with cPA analogues administered at tenfold concentration of the final concentration. The cPA analogues were diluted with HBSS, 0.01% protease and fatty acid-free BSA (SERVA Electrophoresis GmbH, Heidelberg, Germany). Cells for LPA4, LPA5, and LPA6 analysis were treated with Ki16425 (final concentration: 10 μM), 5 min before treatment with the cPA analogues. After incubation for 1 h at 37 °C, 80 µL of the supernatant was transferred to fresh 96-well plates. An equal volume of 1 mM p-NPP solution [120 mM Tris–HCl (pH 9.5), 40 mM NaCl, and 10 mM MgCl2] was added to both the supernatant and the cells. Alkaline phosphatase activity was calculated by measuring absorbance at 405 nm using the Cytation 3 plate reader (BioTek, Winooski, VT, USA).

hLPA4 = molecular target: T2, hLPA4 (Homo sapiens, UniProt Q99677); assay: TGFα-shedding assay, LPA4; assay type: cell-based; details: 293A cells, AP-TGFα release; for EC50: 1 h, with Ki16425 10 μM; for Emax: read-out: Emax ± SEM hLPA4 (converted)
T2 construct: expressed in transfected cells; host or cells: 293A cells
Method: as §1, §2

hLPA6 = molecular target: T3, hLPA6 (Homo sapiens, UniProt P43657); assay: TGFα-shedding assay, LPA6; assay type: cell-based; details: 293A cells, AP-TGFα release; for EC50: 1 h; for Emax: read-out: Emax ± SEM hLPA6 (converted)
T3 construct: expressed in transfected cells; host or cells: 293A cells
T3 sequence (P43657 1-344): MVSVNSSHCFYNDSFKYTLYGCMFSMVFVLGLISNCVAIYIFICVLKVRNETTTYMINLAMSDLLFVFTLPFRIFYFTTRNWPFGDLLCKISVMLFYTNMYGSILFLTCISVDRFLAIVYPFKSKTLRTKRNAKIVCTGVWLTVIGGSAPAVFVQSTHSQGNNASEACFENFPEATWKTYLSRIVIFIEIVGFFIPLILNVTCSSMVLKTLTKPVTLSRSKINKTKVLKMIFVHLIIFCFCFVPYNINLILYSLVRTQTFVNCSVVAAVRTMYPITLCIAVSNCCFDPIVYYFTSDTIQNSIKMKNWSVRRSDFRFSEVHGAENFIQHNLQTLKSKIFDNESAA
Method: as §1, §2

hLPA2 = molecular target: T4, hLPA2 (Homo sapiens, UniProt Q9HBW0); assay: TGFα-shedding assay, LPA2; assay type: cell-based; details: 293A cells, AP-TGFα release; for EC50: 1 h; for Emax: read-out: Emax ± SEM hLPA2 (converted)
T4 construct: expressed in transfected cells; host or cells: 293A cells
Method: as §1, §2

human recombinant ATX = molecular target: T5, human recombinant ATX (Homo sapiens, UniProt Q13822); assay: Hydrolysis of cPA analogues by ATX (LC-QqQ); assay type: biochemical; details: substrate 10 µM, ATX 50 nM, 37 °C, time-dependent
T5 construct: purchased Cayman Chemical
Method: Analyses of LPA from cPA, 2carbaLPA from 2ccPA, and 3carbaLPA from 3ccPA were performed using LC-QqQ as per methods described previously. cPA 18:1, or 2ccPA 18:1 and 3ccPA 18:1 mixture as substrate (10 μM each) were incubated at 37 °C for 2 h with human recombinant ATX (final concentration: 50 nM) and subjected to LC-QqQ. 2carbaLPA and 3carba LPA were both detected in the negative ion mode with selected reaction monitoring (SRM) of the transition from m/z 433.27 to m/z 151.02. To separate α-LPA and the predicted β-LPA or 2carbaLPA and 3carbaLPA, LC method was performed as per previously described protocols with some modifications. Briefly, the UHPLC PEEK Inertsil ODS-3 C18 column (3 µm, 2.1 × 150 mm; GL Sciences, Tokyo, Japan) was used and the compounds were eluted with a gradient solvent system: solvent A (5 mM ammonium formate in water containing 0.0096% formic acid, pH 4.0), solvent B (5 mM ammonium formate in 95% acetonitrile/5% water containing 1.16% formic acid, pH 4.0). The analytical procedure commenced with solvent B 55% for 10 min, followed by a linear gradient 85% for 40 min that was maintained at 85% for 15 min. […] The flow rate was 0.2 mL/min at a column temperature of 40 ℃. The injection volume was 10 µL/sample.
Supplementary Figure S4. Lysophosphatidic acid (LPA) produced from cyclic phosphatidic acid (cPA), 2-carba-lysophosphatidic acid (2carbaLPA) produced from 2-carba-cyclic phosphatidic acid (2ccPA) and 3-carba-lysophosphatidic acid (3carbaLPA) produced from 3-carba-cyclic phosphatidic acid (3ccPA) by autotaxin (ATX). (a) cPA 16:0, (b) 2ccPA or (c) 3ccPA (final concentration: 10 µM each) was incubated with or without human recombinant ATX (50 nM final concentration) at 37°C. The amount of produced (a) LPA 16:0, (b) 2carbaLPA or (c) 3carbaLPA was detected using liquid chromatography with tandem mass spectrometry (LC-QqQ) and presented as peak area (counts). Data are represented as mean ± standard deviation of experiments conducted in duplicate. […]

T2 sequence (Q99677 whole entry): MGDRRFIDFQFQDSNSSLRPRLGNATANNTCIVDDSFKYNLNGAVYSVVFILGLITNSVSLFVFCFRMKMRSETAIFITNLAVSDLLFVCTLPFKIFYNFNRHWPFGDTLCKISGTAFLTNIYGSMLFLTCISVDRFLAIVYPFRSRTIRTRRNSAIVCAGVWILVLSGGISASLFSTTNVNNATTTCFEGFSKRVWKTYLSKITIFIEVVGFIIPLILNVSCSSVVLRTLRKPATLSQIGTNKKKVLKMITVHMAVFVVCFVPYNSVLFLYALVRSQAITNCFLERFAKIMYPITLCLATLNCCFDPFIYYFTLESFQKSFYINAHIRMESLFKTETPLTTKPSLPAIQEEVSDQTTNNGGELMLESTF
T4 sequence (Q9HBW0 whole entry): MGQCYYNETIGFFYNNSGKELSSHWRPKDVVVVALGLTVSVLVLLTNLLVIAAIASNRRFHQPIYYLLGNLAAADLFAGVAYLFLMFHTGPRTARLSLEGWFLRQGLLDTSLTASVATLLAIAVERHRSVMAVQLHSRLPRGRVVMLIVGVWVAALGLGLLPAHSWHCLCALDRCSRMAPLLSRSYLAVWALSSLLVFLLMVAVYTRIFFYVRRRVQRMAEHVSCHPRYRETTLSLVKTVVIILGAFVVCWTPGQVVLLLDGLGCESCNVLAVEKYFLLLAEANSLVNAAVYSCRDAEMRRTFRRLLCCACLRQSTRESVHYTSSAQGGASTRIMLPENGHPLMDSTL
T1 sequence (Q9H1C0 whole entry): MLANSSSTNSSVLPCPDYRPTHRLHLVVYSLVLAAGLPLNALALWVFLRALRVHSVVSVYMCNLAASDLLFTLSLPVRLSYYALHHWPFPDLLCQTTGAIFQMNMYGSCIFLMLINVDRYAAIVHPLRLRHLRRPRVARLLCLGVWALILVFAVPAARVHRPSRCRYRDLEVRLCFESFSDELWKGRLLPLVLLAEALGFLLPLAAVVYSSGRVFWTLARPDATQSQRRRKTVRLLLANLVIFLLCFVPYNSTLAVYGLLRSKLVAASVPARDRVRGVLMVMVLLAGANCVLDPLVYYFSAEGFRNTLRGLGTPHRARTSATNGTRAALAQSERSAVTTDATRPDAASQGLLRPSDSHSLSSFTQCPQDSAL

| Compound | EC50 (hLPA5) [nM] | Emax (hLPA5) [%] | EC50 (hLPA4) [nM] | Emax (hLPA4) [%] | EC50 (hLPA6; with Ki16425 10 μM) [nM] | Emax (hLPA6) [%] | EC50 (hLPA2) [nM] | Emax (hLPA2) [%] | Hydrolysis by ATX (human recombinant ATX) | EC50 (hLPA6; bound) [nM] | EC50 (hLPA2; bound) [nM] |
| --- | --- | --- | --- | --- | --- | --- | --- | --- | --- | --- | --- |
| CCCCCCCC/C=C\CCCCCCCC(=O)OCC(CO)CP(=O)(O)O (stereo not drawn) [2carbaLPA 18:1, 2-carba-lysophosphatidic acid] | 50.2 | 38.3 | 1 | 24.9 | 90.9 | 29.3 | 256 | 35.8 | – | – | – |
| CCCCCCCC/C=C\CCCCCCCC(=O)OC[C@@H](O)CCP(=O)(O)O [3carba LPA 18:1, 3-carba-lysophosphatidic acid] | 89.3 | 35.5 | 1.9 | 23.5 | 132 | 27.1 | 28.3 | 30.7 | – | – | – |
| CCCCCCCC/C=C\CCCCCCCC(=O)OCC1COP(=O)(O)C1 (stereo not drawn) [2ccPA 18:1, 2-carba-cyclic phosphatidic acid] | 973 | 31.7 | 71.9 | 19.6 | – | – | – | – | 2ccPA to 2carbaLPA | > 3000 | > 3000 |

The next lines start with the values.

| EC50 (hLPA5) [nM] | Emax (hLPA5) [%] | EC50 (hLPA4) [nM] | Emax (hLPA4) [%] | EC50 (hLPA6; with Ki16425 10 μM) [nM] | Emax (hLPA6) [%] | EC50 (hLPA2) [nM] | Emax (hLPA2) [%] | Hydrolysis by ATX (human recombinant ATX) | EC50 (hLPA6; bound) [nM] | EC50 (hLPA2; bound) [nM] | Compound |
| --- | --- | --- | --- | --- | --- | --- | --- | --- | --- | --- | --- |
| 2230 | 51.2 | 92.3 | 23.3 | – | – | 2600 | 53.2 | hydrolysed to 3carbaLPA by ATX | > 3000 | – | CCCCCCCC/C=C\CCCCCCCC(=O)OC[C@@H]1CCP(=O)(O)O1 [3ccPA 18:1, 3-carba-cyclic phosphatidic acid] |
| 354 | 35.6 | 32.8 | 17.2 | – | – | 1070 | 35.9 | hydrolyses cPA to LPA | > 3000 | – | CCCCCCCC/C=C\CCCCCCCC(=O)OC[C@@H]1COP(=O)(O)O1 [cPA 18:1, 1-Oleoyl-cPA] |
